Experimental data published in ChEMBL document CHEMBL1137107, “Design, synthesis, and evaluation of hexahydrobenz[f]isoquinolines as a novel class of dopamine 3 receptor ligands” (Bioorg Med Chem Lett, 2004).

Legend:
[1] = Binding affinity towards D1-like dopamine receptor in caudate-putamen membranes of sprague-dawley rat brain by using [3H]-SCH- 23390 as radioligand; format: cell membranes, Membrane
[2] = Binding affinity towards D2-like dopamine receptor in caudate-putamen membranes of sprague-dawley rat brain by using [3H]spiperone as radioligand; format: cell membranes, Membrane
Rattus norvegicus [3] = species: Rattus norvegicus; assay: Ratio of binding affinity for D1-like receptor to that of dopamine D3 receptor
Rattus norvegicus [4] = species: Rattus norvegicus; assay: Ratio of binding affinity for D2-like receptor to that of dopamine D3 receptor
D(3) dopamine receptor = D(3) dopamine receptor (Rattus norvegicus, UniProt P19020)
D(3) dopamine receptor, sequence (P19020 whole entry): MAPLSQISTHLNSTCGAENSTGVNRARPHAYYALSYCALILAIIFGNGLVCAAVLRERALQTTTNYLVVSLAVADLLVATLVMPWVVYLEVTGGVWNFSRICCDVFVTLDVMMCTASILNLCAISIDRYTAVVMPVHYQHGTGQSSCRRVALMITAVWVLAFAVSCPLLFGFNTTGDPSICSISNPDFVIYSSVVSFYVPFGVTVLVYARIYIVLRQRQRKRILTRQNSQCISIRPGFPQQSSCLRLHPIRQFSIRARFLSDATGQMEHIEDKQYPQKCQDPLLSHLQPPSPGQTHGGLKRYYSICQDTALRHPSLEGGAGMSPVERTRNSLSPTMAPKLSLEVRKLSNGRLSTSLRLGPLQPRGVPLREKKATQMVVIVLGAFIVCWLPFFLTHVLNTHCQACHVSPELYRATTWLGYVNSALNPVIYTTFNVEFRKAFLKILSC
Description: Binding affinity towards dopamine D3 receptor in ventral striatal membranes of sprague-dawley rat brain by using [3H]-PD 128907 as radioligand

| Compound | Ki [1] | Ki [2] | Selectivity (Rattus norvegicus [3]) | Selectivity (Rattus norvegicus [4]) | Ki (D(3) dopamine receptor) |
| --- | --- | --- | --- | --- | --- |
| c1ccc(CCN2CCC3=C(CCc4ccccc43)C2)cc1 | 0.819 µM | 3.29 µM | 10 | 39 | 0.084 µM |
| c1ccc(CCCCN2CCC3=C(CCc4ccccc43)C2)cc1 | 0.696 µM | 0.059 µM | 9 | 1 | 0.074 µM |
| c1ccc(CCCN2CCC3=C(CCc4ccccc43)C2)cc1 |  |  |  |  | 0.103 µM |
| CCCN1CCC2=C(CCc3ccccc32)C1 | 1.12 µM | 0.084 µM | 18 | 1 | 0.063 µM |
| CCCCCN1CCC2=C(CCc3ccccc32)C1 | 1.05 µM | 0.046 µM | 28 | 1 | 0.038 µM |
| O=C(NCCCCN1CCC2=C(CCc3ccccc32)C1)c1ccc2ccccc2c1 | 0.993 µM | 0.811 µM | 163 | 133 | 0.0061 µM |
| COc1ccccc1N1CCN(CCCCNC(=O)c2ccc3ccccc3c2)CC1 [BP-897] | 0.636 µM | 0.162 µM |  |  |  |
| CCN1CCC2=C(CCc3ccccc32)C1 |  |  |  |  | 0.183 µM |
| CCCCN1CCC2=C(CCc3ccccc32)C1 | 1.57 µM | 0.122 µM | 62 | 5 | 0.025 µM |
